For this assay, the target named is hROMK (hKir1.1) (Homo sapiens (Human), UniProt P48048). Briefly: Thallium Flux Assay (ROMK channel functional thallium flux assay, FLIPR-Tetra). It is filed as cell-based. To be noted: HEK293 cells stably expressing hROMK (hKir1.1); 30 min incubation with test compound. As for the experimental part: The following Thallium Flux Assay was performed on each of the final product compounds in the Examples.
HEK293 cells stably expressing hROMK (hKir1.1) were grown at 37° C. in a 10% CO2 humidified incubator in complete growth media: Dulbecco's Modified Eagle Medium supplemented with non-essential amino acids, Penicillin/Streptomycin/Glutamine, G418 and FBS. At >80% confluency, aspirate the media from the flask and rinse with 10 mL Calcium/Magnesium-free PBS. 5 mL of 1× trypsin (prepared in Ca/Mg Free PBS) was added to a T-225 flask and the flask was returned to the 37° C./CO2 incubator for 2-3 minutes. The cell was dislodged by genitly banging the side of the flask by hand. The cells were titrated completely and then the cells were transferred to 25 mL complete media. The cells were centrifuged at 1,500 rpm for 6 min followed by resuspension in complete growth media and cell concentration was determined. 4E6 cells/T-225 flask attained >80% confluency in 4 days. Under ideal growth conditions and appropriate tissue culture practices, this cell line was stable for 40-45 passages.
FluxOR Kit Components (Invitrogen F10017)
• FluxOR™ Reagent (Component A) • FluxOR™ Assay Buffer (Component B)—10× Concentrate • PowerLoad™ Concentrate (Component C)—100× Concentrate • Probenecid (Component D)—Lyophilized sample is kept at −20° C. Water soluble, 100× after solubilization in 1 mL water. Store at 4° C. • FluxOR™ Chloride-free Buffer (Component E)—5× Concentrate • Potassium sulfate (K2SO4) Concentrate (Component F)—125 mM in water. Store at 4° C. • Thallium sulfate (TI2SO4) Concentrate (Component G)—50 mM in water. Store at 4° C. • DMSO (dimethyl sulfoxide, Component H)—1 mL (100%) Reagent Preparation: FluxOR Working Solutions • 1000× FluxOR™ Reagent: Reconstitute a vial of component A in 100 μl DMSO; Mix well; Store 10 μl aliquots at −20° C. • 1× FluxOR™ Assay Buffer: Dilute Component B 10-fold with water; Adjust pH to 7.4 with Hepes/NaOH; Filter and store at 4° C. • Probenecid/Assay Buffer: 100 mL of 1× FluxOR™ Assay Buffer; 1 mL of reconstituted component D; Store at 4° C. • Loading Buffer (per microplate): 10 μl 1000× FluxOR™ Reagent; 100 μl component C; 10 mL Probenecid/Assay Buffer • Compound Buffer (per microplate): 20 mL Probenecid/Assay Buffer; 0.3 mM ouabain (10 mM ouabain in water can be stored in amber bottle/aluminum foil at room temperature); Test compound • 1× FluxOR™ Chloride-Free Buffer: Prepare 1× working solution in water. Can be stored at room temperature • Stimulant Buffer (prepared at 5× final concentration in 1× FluxOR™ Chloride-Free Buffer): 7.5 mM Thallium sulfate and 0.75 mM Potassium sulfate (to give a final assay concentration of 3 mM Thallium/0.3 mM Potassium). Store at 4° C. when not in use. If kept sterile, this solution is good for months. Assay Protocol—
The ROMK channel functional thallium flux assay was performed in 384 wells, using the FLIPR-Tetra instrument. HEK-hKir1.1 cells were seeded in Poly-D-Lysine microplates and kept in a 37° C.-10% CO2 incubator overnight. On the day of the experiment, the growth media was replaced with the FluxOR™ reagent loading buffer and incubated, protected from light, at ambient temperature (23-25° C.) for 90 min. The loading buffer was replaced with assay buffer±test compound followed by 30 min incubation at ambient temperature, where the Thallium/Potassium stimulant was added to the microplate.
1. Seed HEK-hKir1.1 cells (50 μl at 20,000 cells/well) in 384-well PDL coated Microplates
2. Allow cells to adhere overnight in humidified 37° C./10% CO2 incubator
3. Completely remove cell growth media from microplate and replace with 25 μl loading buffer
4. Incubate Microplate at room temperature, protected form light, for 90 min
5. Remove loading buffer and replace with 25 μl 1× Assay Buffer±test compound.
6. Incubate microplate at room temperature, protected from light, for 30 min
7. At FLIPR-Tetra 384: Add stimulant (Thallium/Potassium) solution to microplate and monitor fluorescence. […]

The results in this text go back to patent US10513518B2, “Inhibitors of the renal outer medullary potassium channel” (Merck Sharp & Dohme Corp., priority 2015, dated 2019).

hROMK (hKir1.1), sequence (P48048 whole entry): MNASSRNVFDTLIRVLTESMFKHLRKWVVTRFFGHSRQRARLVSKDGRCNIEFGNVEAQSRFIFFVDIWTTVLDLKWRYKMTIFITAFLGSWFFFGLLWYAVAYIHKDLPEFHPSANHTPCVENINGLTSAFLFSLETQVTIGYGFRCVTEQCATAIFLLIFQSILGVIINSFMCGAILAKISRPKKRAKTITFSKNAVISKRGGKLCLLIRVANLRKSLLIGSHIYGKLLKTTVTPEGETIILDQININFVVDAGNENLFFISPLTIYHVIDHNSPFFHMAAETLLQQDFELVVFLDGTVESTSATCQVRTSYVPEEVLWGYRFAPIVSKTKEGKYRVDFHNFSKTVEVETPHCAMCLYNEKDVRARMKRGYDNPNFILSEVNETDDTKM

Usually IC50 stands for the point on the concentration scale where inhibition reaches its midpoint. For the compound “8(1R,3r,5S)-8-(2-hydroxy-2-(2-methyl-6-(1H-tetrazol-1-yl)60icycle60-3-yl)ethyl)-1′-(2-methyl-3-oxocyclopent-1-en-1-yl)-8-azaspiro[bicyclo[3.2.1]octane-3,3′-pyrrolidin]-2′-one [Example 5]”, it took 49.1 nM to reach half-maximal inhibition (IC50).
As for `Cc1nc(-n2cnnn2)ccc1C(O)CN1CCC2(CC1)CCN(C1=CS(=O)(=O)CC1)C2=O` (single isomer, unassigned) [Example 1, 2-(1,1-dioxido-4,5-dihydrothiophen-3-yl)-8-(2-hydroxy-2-(2-methyl-6-(1H-tetrazol-1-yl)pyridin-3-yl)ethyl)-2,8-diazaspiro[4.5]decan-1-one], the IC50 worked out at 640 nM.
As for `CC1=C(N2CCC3(CCCN(CC(O)c4ccc(-n5cnnn5)nc4C)CC3)C2=O)CCC1=O` (single isomer, unassigned) [Example 3A, 8-(2-hydroxy-2-(2-methyl-6-(1H-tetrazol-1-yl)pyridin-3-yl)ethyl)-2-(2-methyl-3-oxocyclopent-1-en-1-yl)-2,8-diazaspiro[4.6]undecan-1-one], the figure is 323 nM.
As for `CC1=C(N2CCC3(CCCN(CC(O)c4ccc(-n5cnnn5)nc4C)CC3)C2=O)CCC1=O` (single isomer, unassigned) [Example 3B, 8-(2-hydroxy-2-(2-methyl-6-(1H-tetrazol-1-yl)pyridin-3-yl)ethyl)-2-(2-methyl-3-oxocyclopent-1-en-1-yl)-2,8-diazaspiro[4.6]undecan-1-one], the figure is 86.3 nM.
Regarding `CC1=C(N2CCC3(CC4CCC(C3)N4CC(O)c3ccc(-n4cnnn4)cn3)C2=O)CCC1=O` [Example 6, (1R,3r,5S)-8-(2-(5-(1H-tetrazol-1-yl)pyridin-2-yl)-2-hydroxyethyl)-1′-(2-methyl-3-oxocyclopent-1-en-1-yl)-8-azaspiro[bicyclo[3.2.1]octane-3,3′-pyrrolidin]-2′-one], inhibition was half-maximal at 294 nM (IC50).
Compound `Cc1c([C@@H](O)CN2CCC3(CC2)CCN(C2=CC(=O)CC2)C3=O)ccc2c1COC2=O` [Example 11] returned a concentration for half-maximal inhibition (IC50) of 122 nM. This IC50 is about 2.4-fold lower than that of the compound before.
As for `Cc1c([C@@H](O)CN2CCC3(CC2)CC(=O)N(C2=CC(=O)CC2)C3)ccc2c1COC2=O` [Example 12], the figure is 521 nM.
Under `Cc1nc(-n2cnnn2)ccc1C(O)CN1CCC2(CC1)CC(=O)N(C1=CC(=O)CC1)C2` (centres unmarked) [Example 13] stands 356 nM.
Consider `Cc1nc(-n2cnnn2)ccc1C(O)CN1CCC2(CC1)CCN(C1=CC(=O)CC1)C2=O` (centres unmarked) [Example 14], for which it took 87 nM to reach half-maximal inhibition (IC50).
In the case of `Cc1nc(-n2cnnn2)ccc1C(O)CN1CCC2(CC1)CCN(C1=CS(=O)(=O)CC1)C2=O` (centres unmarked) [Example 15], inhibition was half-maximal at 55.9 nM (IC50).
As for `Cc1c([C@@H](O)CN2CCC3(CC2)CCN(C2=CS(=O)(=O)CC2)C3=O)ccc2c1COC2=O` [Example 16], the figure is 276 nM; as for `Cc1nc(-n2cnnn2)ccc1C(O)CN1CCC2(CC1)CC(=O)N(C1=CS(=O)(=O)CC1)C2` (centres unmarked) [Example 17], 598 nM; as for `CC1=C(N2CCC3(CCN(CC(O)c4ccc(-n5cnnn5)nc4C)CC3)C2=O)CCC1=O` (centres unmarked) [Example 18], 47.3 nM.
In turn, `CC1=C(N2CCC3(CCN(C[C@H](O)c4ccc5c(c4C)COC5=O)CC3)C2=O)CCC1=O` [Example 19] had a concentration for half-maximal inhibition (IC50) of 62.2 nM.
Under `CC1=C(N2CC3(CCN(C[C@H](O)c4ccc5c(c4C)COC5=O)CC3)CC2=O)CCC1=O` [Example 20] stands 497 nM; under `CC1=C(N2CCC3(CCN(C[C@H](O)c4ccc(-n5cnnn5)nc4)CC3)C2=O)CCC1=O` [Example 21], 118 nM.
Under `O=C1N(C2=CS(=O)(=O)CC2)CCC12CCN(C[C@H](O)c1ccc(-n3cnnn3)nc1)CC2` [Example 22] stands 114 nM.
`O=C1C=C(N2CCC3(CCN(C[C@H](O)c4ccc(-n5cnnn5)nc4)CC3)C2=O)CC1` [Example 23] came in with a half-maximal inhibitory concentration (IC50) of 187 nM.
Consider `CC1=C(N2CCC3(CCN(CC(O)c4ncc(-n5cnnn5)cc4C)CC3)C2=O)CCC1=O` (centres unmarked) [Example 24], for which the IC50 came to 386 nM.
`CC1=C(N2CCC3(CCN(CC(O)c4ncc(-n5cnnn5)cc4C)CC3)C2=O)CCC1=O` (centres unmarked) [Example 25]: half-maximal inhibition (IC50) was put at 347 nM.
Under `CC1=C(N2CCC3(CCN(CC(O)c4ccc(-n5cnnn5)cc4C)CC3)C2=O)CCC1=O` (centres unmarked) [Example 26] stands 87.1 nM; under `CC1=C(N2CCC3(CCN(CC(O)c4ccc(-n5cnnn5)cc4C)CC3)C2=O)CCC1=O` (centres unmarked) [Example 27], 74.5 nM; under `CC1=C(N2CCC3(CCN(CC(O)c4cnc(-n5cnnn5)c(F)c4)CC3)C2=O)CCC1=O` (centres unmarked) [Example 28], 295 nM.
As for `CC1=C(N2CCC3(CCN(CC(O)c4cnc(-n5cnnn5)c(F)c4)CC3)C2=O)CCC1=O` (centres unmarked) [Example 29], the figure is 674 nM; as for `O=C1C=C(N2CCC3(CCN(CC(O)c4cnc(-n5cnnn5)c(F)c4)CC3)C2=O)CC1` (centres unmarked) [Example 30], 415 nM.
As for `O=C1C=C(N2CCC3(CCN(CC(O)c4cnc(-n5cnnn5)c(F)c4)CC3)C2=O)CC1` (centres unmarked) [Example 31], the figure is 751 nM; as for `CC1=C(N2CCCC3(CCN(CC(O)c4ccc(-n5cnnn5)nc4C)CC3)C2=O)CCC1=O` (centres unmarked) [Example 32], 647 nM; as for `Cc1nc(-n2cnnn2)ccc1C(O)CN1CCC2(CCCN(C3=CC(=O)CC3)C2=O)CC1` (centres unmarked) [Example 33], 17.3 nM.
`Cc1c([C@@H](O)CN2CCC3(CCCN(C4=CC(=O)CC4)C3=O)CC2)ccc2c1COC2=O` [Example 34] displayed an IC50 of 10.9 nM.
As for `Cc1cc(-n2cnnn2)ccc1C(O)CN1CCC2(CC1)CCN(C1=CC(=O)CC1)C2=O` (centres unmarked) [Example 35], the figure is 196 nM.
For `CC1=C(N2CCC3(CCN(CC(O)c4ccc(-n5cnnn5)cc4F)CC3)C2=O)CCC1=O` (centres unmarked) [Example 36], the IC50 was found to be 531 nM. Against the preceding compound, the IC50 is about 2.7-fold higher.
The compound `O=C1C=C(N2CCC3(CCN(CC(O)c4ccc(-n5cnnn5)cc4F)CC3)C2=O)CC1` (centres unmarked) [Example 37] gave a concentration for half-maximal inhibition (IC50) of 461 nM.
As for `Cc1nc(-n2cnnn2)ccc1C(O)CN1CCC2(CCCN(C3=CS(=O)(=O)CC3)C2=O)CC1` (centres unmarked) [Example 38], the figure is 88.7 nM.
`CC1=C(N2CCC3(CCCN(C[C@H](O)c4ccc5c(c4C)COC5=O)CC3)C2=O)CCC1=O` (some centres unmarked) [Example 39] had an IC50 of 15.1 nM. Compared with the last compound, the IC50 is about 5.9-fold lower.
`CC1=C(N2CCC3(CCCN(C[C@H](O)c4ccc5c(c4C)COC5=O)CC3)C2=O)CCC1=O` (some centres unmarked) [Example 40] registered an IC50 of 71.5 nM. Against the preceding compound, the IC50 is about 4.7-fold higher.
Turning to `Cc1cc(-n2cnnn2)ccc1C(O)CN1CCC2(CCCN(C3=CC(=O)CC3)C2=O)CC1` (centres unmarked) [Example 41], half-maximal inhibition (IC50) required 10.7 nM.
As for `O=C1C=C(N2CCCC3(CCN(CC(O)c4ccc(-n5cnnn5)cn4)CC3)C2=O)CC1` (centres unmarked) [Example 42], the half-maximal inhibitory concentration (IC50) worked out at 59.7 nM.
Under `CC1=C(N2CCC3(CCCN(CC(O)c4ccc(-n5cnnn5)nn4)CC3)C2=O)CCC1=O` (centres unmarked) [Example 43] stands 568 nM; under `CC1=C(N2CCC3(CCN(CC(O)c4ccc(-n5cnnn5)nn4)CC3)C2=O)CCC1=O` (centres unmarked) [Example 44], 100 nM; under `CC1=C(N2CCOC3(CCN(C[C@H](O)c4ccc5c(c4C)COC5=O)CC3)C2=O)CCC1=O` [Example 45], 892 nM.
“(1R,3R,5S)-8-((R)-2-hydroxy-2-(4-methyl-1-oxo-1,3-dihydroisobenzofuran-5-yl)ethyl)-1′-(2-methyl-3-oxocyclopent-1-en-1-yl)-8-azaspiro[bicyclo[3.2.1] octane-3,3′-pyrrolidin]-2′-one [Example 4]”: the IC50 is 474 nM. This IC50 is about 1.9-fold lower than that of the compound before.
